One assay relates to HeLa cells. Description: [3H]Adenosine uptake functional cellular assay. The settings on record: Homo sapiens, HeLa, accumulation of [3H]adenosine into HeLa cells; compound range 10 μM to […]; read-out: Adenosine uptake inhibition IC50. In kind it is cell-based. An outline of the steps:
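Inhibition of adenosine uptake was measured in HeLa cells (ATCC CCL-2) by following accumulation of tritiated adenosine. Cells were kept overnight at 37° C. with 5% (v/v) CO2, then switched to 40 μL HBSS plus 5% (v/v) FBS. 20 μL of 500 nM [3H]adenosine was added, and uptake was counted on a Topcount NXT reader.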

Assay [1] addresses T1, BTK enzyme (recombinant full-length BTK, hBTK) (Homo sapiens, UniProt Q06187).
T1 construct: recombinant protein from baculovirus-transfected Sf9 cells: full-length BTK, 6HIS-tag cleaved; 6HIS (cleaved yes); made in house; host or cells: baculovirus-transfected Sf9 cells
Description: BTK enzyme activity assay, LANCE TR-FRET. The format is biochemical. The settings on record: 50 pM hBTK, 2 μM biotin-A5-peptide, 25 μM ATP; 60 min compound & enzyme incubation; read-out: IC50 BTK activity value.

23 compounds from US20140206681A1, “BTK INHIBITORS” (priority 2013, published 2014) can be followed below.

T1 sequence (Q06187 whole entry): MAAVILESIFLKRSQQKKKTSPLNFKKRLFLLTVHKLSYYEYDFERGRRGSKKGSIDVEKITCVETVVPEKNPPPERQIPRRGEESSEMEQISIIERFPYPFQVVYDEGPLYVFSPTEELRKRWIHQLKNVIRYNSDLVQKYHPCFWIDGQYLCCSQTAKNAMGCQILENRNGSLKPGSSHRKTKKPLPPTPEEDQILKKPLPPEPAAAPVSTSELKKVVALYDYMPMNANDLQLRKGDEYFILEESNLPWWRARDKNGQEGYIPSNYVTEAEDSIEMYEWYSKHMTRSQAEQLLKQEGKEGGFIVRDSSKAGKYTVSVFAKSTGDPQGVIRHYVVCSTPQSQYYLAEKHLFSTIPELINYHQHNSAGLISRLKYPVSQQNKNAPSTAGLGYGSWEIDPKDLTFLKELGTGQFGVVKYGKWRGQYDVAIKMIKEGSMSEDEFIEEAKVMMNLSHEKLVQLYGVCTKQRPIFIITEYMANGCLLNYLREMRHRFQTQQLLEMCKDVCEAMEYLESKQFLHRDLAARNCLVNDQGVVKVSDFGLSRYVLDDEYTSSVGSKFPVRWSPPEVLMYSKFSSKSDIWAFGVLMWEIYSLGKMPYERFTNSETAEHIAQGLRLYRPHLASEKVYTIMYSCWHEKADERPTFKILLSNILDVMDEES

Consider `CCOc1cc(C(=O)Nc2cc(C(F)(F)F)ccn2)ccc1-c1nc([C@@H]2CC[C@H]3CCC(=O)N3C2)n2ccnc(N)c12` [Example 69, 4-{8-amino-3-[(6R,8aS)-3-oxooctahydroindolizin-6-yl]imidazo[1,5-a]pyrazin-1-yl}-3-ethoxy-N-[4-(trifluoromethyl)pyridin-2-yl]benzamide], for which the results for the IC50 (in the assay on HeLa cells; in assay [1]) were 1440 nM and 0.16 nM, respectively.

On to `Nc1nccn2c([C@@H]3CC[C@H]4CCC(=O)N4C3)nc(-c3ccc(C(=O)Nc4cc(C(F)(F)F)ccn4)cc3OC(F)F)c12` [Example 71, 4-{8-amino-3-[(6R,8aS)-3-oxooctahydroindolizin-6-yl]imidazo[1,5-a]pyrazin-1-yl}-3-(difluoromethoxy)-N-[4-(trifluoromethyl)pyridin-2-yl]benzamide], for which the figures for the IC50 (in the assay with HeLa cells; in assay [1]) were 732 nM and 0.48 nM, respectively.

In the case of `Nc1nccn2c([C@H]3CC[C@H]4C[C@@H](O)C(=O)N4C3)nc(-c3ccc(C(=O)Nc4cc(C(F)(F)F)ccn4)cc3)c12` [Example 73, 4-{8-amino-3-[(2R,6S,8aS)-2-hydroxy-3-oxooctahydroindolizin-6-yl]imidazo[1,5-a]pyrazin-1-yl}-N-[4-(trifluoromethyl)pyridin-2-yl]benzamide], the figures for the IC50 (with HeLa cells; in assay [1]) were 973 nM and 0.93 nM, respectively.

On to `Nc1nccn2c([C@H]3CN4C(=O)OC[C@H]4CO3)nc(-c3ccc(C(=O)Nc4cc(C(F)(F)F)ccn4)cc3)c12` [Example 76, 4-(8-amino-3-((6R,8aR)-3-oxohexa hydrooxazolo[4,3-c][1,4]oxazin-6-yl)imidazo[1,5-a]pyrazin-1-yl)-N-(4-(trifluoromethyl)pyridin-2-yl)benzamide], for which the IC50 in the assay with HeLa cells was determined as 682 nM; in assay [1] it was 24.9 nM.

Turning to `C[C@H]1OC[C@@H]2CC[C@@H](c3nc(-c4ccc(C(=O)Nc5cc(C(F)(F)F)ccn5)cc4)c4c(N)nccn34)CN2C1=O` [Example 77, 4-(8-amino-3-((3R,7R,9aS)-3-methyl-4-oxooctahydropyrido[2,1-c][1,4]oxazin-7-yl)imidazo[1,5-a]pyrazin-1-yl)-N-(4-(trifluoromethyl)pyridin-2-yl)benzamide], the IC50 with HeLa cells is 31.2 nM; in assay [1], 0.13 nM.

Turning to `N#C/N=C1\CC[C@@H]2CC[C@@H](c3nc(-c4ccc(C(=O)Nc5cc(C(F)(F)F)ccn5)cc4)c4c(N)nccn34)CN12` [Example 78, 4-(8-amino-3-((6R,8aS,E)-3-(cyanoimino)octahydroindolizin-6-yl)imidazo[1,5-a]pyrazin-1-yl)-N-(4-(trifluoromethyl)pyridin-2-yl)benzamide], the IC50 came to 132 nM in the assay with HeLa cells and 0.46 nM in assay [1].

Regarding `COC(=O)Nc1nccn2c([C@@H]3CC[C@H]4CCC(=O)N4C3)nc(-c3ccc(C(=O)Nc4cc(C(F)(F)F)ccn4)cc3)c12` [Example 79, methyl (3-((6R,8aS)-3-oxooctahydroindolizin-6-yl)-1-(4-((4-(trifluoromethyl)pyridin-2-yl)carbamoyl)phenyl)imidazo[1,5-a]pyrazin-8-yl)carbamate], the IC50 in the assay on HeLa cells was 295 nM; in assay [1] it was 7.3 nM.

Consider `CCN1CC(=O)N2C[C@H](c3nc(-c4ccc(C(=O)Nc5cc(C(F)(F)F)ccn5)cc4)c4c(N)nccn34)CC[C@H]2C1` [Example 80, 4-(8-amino-3-((7R,9aS)-2-ethyl-4-oxooctahydro-1H-pyrido[1,2-a]pyrazin-7-yl)imidazo[1,5-a]pyrazin-1-yl)-N-(4-(trifluoromethyl)pyridin-2-yl)benzamide], for which the IC50 is 82.5 nM in the assay on HeLa cells and 0.27 nM in assay [1].

In the case of `CC(C)N1CC(=O)N2C[C@H](c3nc(-c4ccc(C(=O)Nc5cc(C(F)(F)F)ccn5)cc4)c4c(N)nccn34)CC[C@H]2C1` [Example 81], the figures for the IC50 (in the assay on HeLa cells; in assay [1]) were 68.6 nM and 0.29 nM, respectively.

Regarding `COC(=O)CN1CC(=O)N2C[C@H](c3nc(-c4ccc(C(=O)Nc5cc(C(F)(F)F)ccn5)cc4)c4c(N)nccn34)CC[C@H]2C1` [Example 82], the IC50 was determined as 78.1 nM in the assay with HeLa cells and 0.19 nM in assay [1].

With `Nc1nccn2c([C@@H]3CC[C@H]4CCCN4C3)nc(-c3ccc(C(=O)Nc4cc(C(F)(F)F)ccn4)cc3)c12` [Example 87, 4-(8-amino-3-((6R,8aS)-octahydroindolizin-6-yl)imidazo[1,5-a]pyrazin-1-yl)-N-(4-(trifluoromethyl)pyridin-2-yl)benzamide], the IC50 in the assay with HeLa cells worked out at 75.5 nM; in assay [1], 0.67 nM.

Turning to `COc1cc(C(=O)Nc2cc(C(F)(F)F)ccn2)ccc1-c1nc([C@@H]2CC[C@H]3[C@@H](C)OC(=O)N3C2)n2ccnc(N)c12` [Example 89, 4-(8-amino-3-((1R,6R,8aS)-1-methyl-3-oxohexahydro-1H-oxazolo[3,4-a]pyridin-6-yl)imidazo[1,5-a]pyrazin-1-yl)-3-methoxy-N-(4-(trifluoromethyl)pyridin-2-yl)benzamide], the results for the IC50 (in the assay with HeLa cells; in assay [1]) were 490 nM and 0.13 nM, respectively.

With `COc1cc(C(=O)Nc2cc(C(F)(F)F)ccn2)ccc1-c1nc([C@@H]2CC[C@@H]3N(C2)C(=O)OC3(C)C)n2ccnc(N)c12` [Example 90, 4-(8-amino-3-((6R,8aS)-1,1-dimethyl-3-oxohexahydro-1H-oxazolo[3,4-a]pyridin-6-yl)imidazo[1,5-a]pyrazin-1-yl)-3-methoxy-N-(4-(trifluoromethyl)pyridin-2-yl)benzamide], the IC50 in the assay on HeLa cells was found to be 373 nM; in assay [1], 0.18 nM.

Turning to `COc1cc(C(=O)Nc2cc(C(F)(F)F)ccn2)ccc1-c1nc([C@H]2CN3C(=O)CC[C@@H]3CO2)n2ccnc(N)c12` [Example 91, 4-(8-amino-3-((3R,8aR)-6-oxohexahydro-1H-pyrrolo[2,1-c][1,4]oxazin-3-yl)imidazo[1,5-a]pyrazin-1-yl)-3-methoxy-N-(4-(trifluoromethyl)pyridin-2-yl)benzamide], the IC50 was found to be 639 nM in the assay on HeLa cells and 0.52 nM in assay [1].

As to `Nc1nccn2c([C@@H]3CC[C@H]4CCOC(=O)N4C3)nc(-c3ccc(C(=O)Nc4cc(C(F)(F)F)ccn4)cc3)c12` [Example 92, 4-{8-amino-3-[(4aS,7R)-1-oxohexahydro-3H-pyrido[1,2-c][1,3]oxazin-7-yl]imidazo[1,5-a]pyrazin-1-yl}-N-[4-(trifluoromethyl)pyridin-2-yl]benzamide], the IC50 with HeLa cells turned out to be 64.6 nM; in assay [1], 0.075 nM.

For the compound `Nc1nccn2c([C@H]3CC[C@@H]4CCOC(=O)N4C3)nc(-c3ccc(C(=O)Nc4cc(C(F)(F)F)ccn4)cc3)c12` [Example 93, 4-{8-amino-3-[(4aR,7S)-1-oxohexahydro-3H-pyrido[1,2-c][1,3]oxazin-7-yl]imidazo[1,5-a]pyrazin-1-yl}-N-[4-(trifluoromethyl)pyridin-2-yl]benzamide], the IC50 came out at 158 nM with HeLa cells and 2.6 nM in assay [1].

`CC1(C)C[C@H]2CC[C@H](c3nc(-c4ccc(C(=O)Nc5cc(C(F)(F)F)ccn5)cc4)c4c(N)nccn34)CN2C1=O` [Example 94, 4-{8-amino-3-[(6S,8aR)-2,2-dimethyl-3-oxooctahydroindolizin-6-yl]imidazo[1,5-a]pyrazin-1-yl}-N-[4-(trifluoromethyl)pyridin-2-yl]benzamide]: the IC50 amounted to 63.2 nM in the assay on HeLa cells and 0.14 nM in assay [1].

For `C[C@@H]1OC(=N)N2C[C@H](c3nc(-c4ccc(C(=O)Nc5cc(C(F)(F)F)ccn5)cc4)c4c(N)nccn34)CC[C@@H]12` [Example 96, 4-{8-amino-3-[(1S,6R,8aS)-3-imino-1-methylhexahydro[1,3]oxazolo[3,4-a]pyridin-6-yl]imidazo[1,5-a]pyrazin-1-yl}-N-[4-(trifluoromethyl)pyridin-2-yl]benzamide], the IC50 in the assay with HeLa cells is 1140 nM; in assay [1] it was 1.3 nM.

With `CC(O)c1ccnc(NC(=O)c2ccc(-c3nc([C@@H]4CC[C@H]5CCC(=O)N5C4)n4ccnc(N)c34)cc2)c1` (stereo partly drawn) [Example 97, 4-{8-amino-3-[(6R,8aS)-3-oxooctahydroindolizin-6-yl]imidazo[1,5-a]pyrazin-1-yl}-N-[4-(1-hydroxyethyl)pyridin-2-yl]benzamide], the IC50 in the assay with HeLa cells is 5380 nM; in assay [1] it was 9.7 nM.

With `CC(C)(O)c1ccnc(NC(=O)c2ccc(-c3nc([C@@H]4CC[C@H]5CCC(=O)N5C4)n4ccnc(N)c34)cc2)c1` [Example 98, 4-{8-amino-3-[(6R,8aS)-3-oxooctahydroindolizin-6-yl]imidazo[1,5-a]pyrazin-1-yl}-N-[4-(1-hydroxy-1-methylethyl)pyridin-2-yl]benzamide], the IC50 turned out to be 6320 nM in the assay on HeLa cells and 49.3 nM in assay [1].

On to `COC(C)c1ccnc(NC(=O)c2ccc(-c3nc([C@@H]4CC[C@H]5CCC(=O)N5C4)n4ccnc(N)c34)cc2)c1` (stereo partly drawn) [Example 99, 4-{8-amino-3-[(6R,8aS)-3-oxooctahydroindolizin-6-yl]imidazo[1,5-a]pyrazin-1-yl}-N-[4-(1-methoxyethyl)pyridin-2-yl]benzamide], for which the IC50 with HeLa cells was found to be 184 nM; in assay [1], 1.5 nM.

Turning to `COc1cc(C(=O)Nc2cc(C(F)(F)F)ccn2)ccc1-c1nc([C@@H]2CC[C@H]3CC(C)(C)C(=O)N3C2)n2ccnc(N)c12` [Example 100, 4-{8-amino-3-[(6R,8aS)-2,2-dimethyl-3-oxooctahydroindolizin-6-yl]imidazo[1,5-a]pyrazin-1-yl}-3-methoxy-N-[4-(trifluoromethyl)pyridin-2-yl]benzamide], the IC50 is 463 nM with HeLa cells and 0.51 nM in assay [1].

Turning to `COc1cc(C(=O)Nc2cc(C(F)(F)F)ccn2)ccc1-c1nc([C@H]2CC[C@@H]3CC(C)(C)C(=O)N3C2)n2ccnc(N)c12` [Example 101, 4-{8-amino-3-[(6S,8aR)-2,2-dimethyl-3-oxooctahydroindolizin-6-yl]imidazo[1,5-a]pyrazin-1-yl}-3-methoxy-N-[4-(trifluoromethyl)pyridin-2-yl]benzamide], the IC50 in the assay on HeLa cells turned out to be 487 nM; in assay [1], 45.4 nM.
